# Measured values reported in US8299036B2, “Active agent combinations with insecticidal and acaricidal properties” (priority 2003, dated 2012).
# How the values were obtained:
# Format in all cases: in vivo
# [1] = test system: Tetranychus urticae (OP-resistant); test: Tetranychus urticae test (OP-resistant; dip application)
# Method: Tetranychus urticae Test (OP-Resistant; Dip Application)
# (§1) To produce a suitable preparation of active compound, 1 part by weight of active compound is mixed with the stated amounts of solvent and emulsifier, and the concentrate is diluted with emulsifier-containing water to the desired concentration.
# Bush beans (Phaseolus vulgaris) which are heavily infested by the greenhouse red spider mite (Tetranychus urticae) are dipped into a preparation of active compound of the desired concentration.
# After the desired period of time, the kill in % is determined. 100% means that all spider mites have been killed; 0% means that none of the spider mites have been killed. The kill rates determined are calculated using Colby's formula (see page 44).
# [2] = test system: Phaedon cochleariae larvae; test: Phaedon cochleariae larvae test (cabbage leaves, dip)
# Method: Phaedon cochleariae Larvae Test
# as §1
# Cabbage leaves (Brassica oleracea) are treated by being dipped into the preparation of active compound of the desired concentration and are populated with larvae of the mustard beetle (Phaedon cochleariae) while the leaves are still moist.
# After the desired period of time, the kill in % is determined. 100% means that all beetle larvae have been killed; 0% means that none of the beetle larvae have been killed. The kill rates determined are calculated using Colby's formula (see page 44).
# [3] = test system: Heliothis armigera; test: Heliothis armigera test (cabbage leaves, dip); details: for Kill rate in % after 6 d, found: Table B 1; for Kill rate in % after 3 d, found: Table B 2
# Method: as §1
# Cabbage leaves (Brassica oleracea) are treated by being dipped into the preparation of active compound of the desired concentration and are populated with caterpillars of the cotton boll worm (Heliothis armigeia) while the leaves are still moist.
# After the desired period of time, the kill in % is determined. 100% means that all caterpillars have been killed; 0% means that none of the caterpillars have been killed. The kill rates determined are calculated using Colby's formula (see page 44).
# [4] = test system: Myzus persicae; test: Myzus persicae test (cabbage leaves, dip); details: Table C
# Method: as §1
# Cabbage leaves (Brassica oleracea) which are heavily infested by the green peach aphid (Myzus persicae) are treated by being dipped into the preparation of active compound of the desired concentration.
# (§2) After the desired period of time, the kill in % is determined. 100% means that all aphids have been killed; 0% means that none of the aphids have been killed. The kill rates determined are calculated using Colby's formula (see page 44).
# [5] = test system: Aphis gossypii; test: Aphis gossypii test (cotton leaves, dip); details: Table A
# Method: To produce a suitable preparation of active compound, 1 part by weight of active compound is mixed with the stated amount of solvent and emulsifier, and the concentrate is diluted with emulsifier-containing water to the desired concentration.
# Cotton leaves (Gossypium hirsutum) which are heavily infested by the cotton aphid (Aphis gossypii) are treated by being dipped into the preparation of active compound of the desired concentration.
# as §2
compound,measurement,setting,value
Cc1cc(C)c(C2=C(OC(=O)CC(C)(C)C)C3(CCCC3)OC2=O)c(C)c1 [Example I-1],"Kill rate in % after 7 d, found","[1]; Table E 2, 0.8 ppm",65%
same,"Kill rate in % after 4 d, found","[2]; Table D 2, 100 ppm",45%
"abamectin [(2-2) abamectin, reference compound]","Kill rate in % after 6 d, found",[3]; 0.16 ppm,50%
"O=S1OCC2C(CO1)C1(Cl)C(Cl)=C(Cl)C2(Cl)C1(Cl)Cl (stereo not shown) [(2-20) endosulfan, endosulfan, reference compound]","Kill rate in % after 6 d, found",[4]; 20 ppm,15%
CCC(C)(C)C(=O)OC1=C(c2ccc(Cl)cc2Cl)C(=O)OC12CCCCC2 [Example I-2],"Kill rate in % after 7 d, found","[1]; Table E 1, 0.8 ppm",0%
same,"Kill rate in % after 4 d, found","[2]; Table D 1, 100 ppm",0%
"spinosad [(2-17) spinosad, reference compound]","Kill rate in % after 3 d, found",[3]; 0.032 ppm,0%
Cc1cc(Cl)cc(C(=O)NC(C)C)c1NC(=O)c1cc(C(F)(F)F)nn1-c1ncccc1Cl [II-1-9],"Kill rate in % after 7 d, found","[1]; Table E 1, 100 ppm",0%
same,"Kill rate in % after 7 d, found","[1]; Table E 2, 100 ppm",0%
same,"Kill rate in % after 6 d, found",[4]; 4 ppm,25%
same,"Kill rate in % after 4 d, found","[2]; Table D 1, 0.16 ppm",0%
same,"Kill rate in % after 4 d, found","[2]; Table D 2, 0.16 ppm",5%
same,"Kill rate in % after 1 d, found",[5]; 4 ppm,10%
same,"Kill rate in % after 6 d, found",[3]; 0.0064 ppm,30%
same,"Kill rate in % after 3 d, found",[3]; 0.0064 ppm,10%
"CC(C)c1cc(Oc2ccccc2)cc(C(C)C)c1NC(=S)NC(C)(C)C [(2-5) diafenthiuron, diafenthiuron, reference compound]","Kill rate in % after 1 d, found",[5]; 20 ppm,15%
